Test results from patent US20230382924A1, “MODULATORS OF CYSTIC FIBROSIS TRANSMEMBRANE CONDUCTANCE REGULATOR” (VERTEX PHARMACEUTICALS INCORPORATED, priority 2020, published 2023).

Legend:
CFTR [1] = target: T1, CFTR (Homo sapiens, UniProt P13569); assay: Membrane Potential Dye, Enteroid Assay B; type: cell-based; conditions: for EC50: read-out: Ent. B EC50
Procedure: Base medium (ADF+++) consisted of Advanced DMEM/Ham's F12, 2 mM Glutamax, 10 mM HEPES, […] penicillin/streptomycin.
Bath 1 Buffer consisted of 1 mM MgCl2, 160 mM NaCl, 4.5 mM KCl, 10 mM HEPES, 10 mM Glucose, 2 mM CaCl2).
Chloride Free Buffer consisted of 1 mM Magnesium Gluconate, 2 mM Calcium Gluconate, 4.5 mM Potassium Gluconate, 160 mM Sodium Gluconate, 10 mM HEPES, 10 mM Glucose.
Bath 1 Dye Solution consisted of Bath 1 Buffer, 0.04% Pluronic F127, 20 μM Methyl Oxonol, 30 μM CaCCinh-A01, 30 μM Chicago Sky Blue.
Chloride Free Dye Solution consisted of Chloride Free Buffer, 0.04% Pluronic F127, 20 μM Methyl Oxonol, 30 μM CaCCinh-A01, 30 μM Chicago Sky Blue.
3. Enteroid Cell Harvesting and Seeding
Cells were recovered in cell recovery solution, collected by centrifugation at 650 rpm for 5 min at 4° C., resuspended in TryPLE and incubated for 5 min at 37° C. Cells were then collected by centrifugation at 650 rpm for 5 min at 4° C. and resuspended in IEMM containing 10 μM ROCK inhibitor (RI).
5. Membrane Potential Dye, Enteroid Assay B
Briefly, cells were washed 5 times in Bath 1 Buffer. Bath 1 Dye Solution was added and the cells were incubated for 25 min at room temperature. Following dye incubation, cells were washed 3 times in Chloride Free Dye Solution. Chloride transport was initiated by addition of Chloride Free Dye Stimulation Solution and the fluorescence signal was read for 15 min.

CFTR [2] = target: T1, CFTR; assay: Membrane Potential Dye, Enteroid Assay A; type: cell-based; conditions: for EC50: read-out: Ent. A EC50
Procedure, shortened: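 Signal is reported as % Activity relative to a triple CFTR modulator control (3 μM + 3 μM + 300 nM acute). Read-out: membrane potential fluorescence (20 μM methyl oxonol) monitored for 15 min after chloride-free stimulation. Dye loading took 25 min at room temperature in Bath 1 buffer containing CaCC blockers.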

T1 sequence (P13569 with tags, fused parts or gaps DEL508-508): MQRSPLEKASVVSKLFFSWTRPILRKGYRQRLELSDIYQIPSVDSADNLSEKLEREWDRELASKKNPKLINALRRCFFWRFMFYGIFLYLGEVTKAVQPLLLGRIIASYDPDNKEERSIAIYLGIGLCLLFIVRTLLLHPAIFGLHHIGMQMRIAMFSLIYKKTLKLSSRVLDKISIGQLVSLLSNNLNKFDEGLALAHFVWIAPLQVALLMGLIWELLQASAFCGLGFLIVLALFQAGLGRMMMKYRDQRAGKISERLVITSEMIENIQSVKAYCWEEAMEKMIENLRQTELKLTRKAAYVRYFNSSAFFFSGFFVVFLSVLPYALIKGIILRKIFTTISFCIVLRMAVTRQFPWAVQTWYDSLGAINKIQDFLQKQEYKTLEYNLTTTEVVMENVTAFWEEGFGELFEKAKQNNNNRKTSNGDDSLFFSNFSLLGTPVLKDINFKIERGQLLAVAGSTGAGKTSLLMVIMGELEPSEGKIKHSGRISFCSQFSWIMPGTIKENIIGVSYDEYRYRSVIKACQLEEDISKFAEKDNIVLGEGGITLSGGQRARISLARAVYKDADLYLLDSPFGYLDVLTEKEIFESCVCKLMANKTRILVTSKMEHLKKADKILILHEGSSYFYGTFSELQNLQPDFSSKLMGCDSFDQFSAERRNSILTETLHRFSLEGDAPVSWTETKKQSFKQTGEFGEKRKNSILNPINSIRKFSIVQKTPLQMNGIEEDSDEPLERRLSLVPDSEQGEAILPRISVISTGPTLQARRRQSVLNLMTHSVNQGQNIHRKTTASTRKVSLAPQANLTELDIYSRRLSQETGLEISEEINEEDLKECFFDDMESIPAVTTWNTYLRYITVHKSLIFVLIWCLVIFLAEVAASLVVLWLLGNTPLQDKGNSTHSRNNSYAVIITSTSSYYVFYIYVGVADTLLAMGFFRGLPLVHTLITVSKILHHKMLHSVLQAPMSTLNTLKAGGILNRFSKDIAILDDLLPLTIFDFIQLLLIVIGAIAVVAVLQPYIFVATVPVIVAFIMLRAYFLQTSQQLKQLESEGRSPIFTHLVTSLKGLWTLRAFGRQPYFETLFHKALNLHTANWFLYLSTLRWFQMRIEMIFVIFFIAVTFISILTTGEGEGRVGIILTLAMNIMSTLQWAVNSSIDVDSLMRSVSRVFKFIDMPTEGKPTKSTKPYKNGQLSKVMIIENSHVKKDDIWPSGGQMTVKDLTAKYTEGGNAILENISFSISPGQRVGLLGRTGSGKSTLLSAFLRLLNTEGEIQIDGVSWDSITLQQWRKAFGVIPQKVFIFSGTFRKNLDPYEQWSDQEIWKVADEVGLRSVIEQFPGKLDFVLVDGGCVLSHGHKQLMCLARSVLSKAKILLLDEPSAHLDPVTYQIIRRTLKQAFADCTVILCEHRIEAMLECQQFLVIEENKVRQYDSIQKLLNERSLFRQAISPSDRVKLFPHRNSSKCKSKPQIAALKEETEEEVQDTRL

Row | Ent. B Max Activity (CFTR [1]; Table 9) | EC50 (CFTR [1]; Table 9) | Ent. A Max Activity (CFTR [2]; Table 9) | EC50 (CFTR [2]; Table 9) | Ent. B Max Activity (CFTR [1]; Table 8) | Ent. A Max Activity (CFTR [2]; Table 8) | EC50 (CFTR [2]; Table 8) | EC50 (CFTR [1]; Table 8) | Structure (SMILES)
1 | +++ (+++ is >60%) | < 1 µM | +++ (+++ is >60%) | < 1 µM |  |  |  |  | Cc1cccc(Cc2cccc(C)c2-c2cc3nc(n2)NS(=O)(=O)c2cccc(c2)C(=O)N[C@H](CC(C)C)CO3)c1 [Compound 170]
2 | +++ (+++ is >60%) | < 1 µM | +++ (+++ is >60%) | < 1 µM |  |  |  |  | Cc1cccc(C)c1-c1cc2nc(n1)NS(=O)(=O)c1cccc(c1)C(=O)NC[C@H](c1ccc(/C=C/C(C)(C)C)cc1)O2 (stereo in doubt) [Compound 151]
3 | +++ (+++ is >60%) | < 1 µM | +++ (+++ is >60%) | < 1 µM |  |  |  |  | Cc1cccc(C)c1-c1cc2nc(n1)NS(=O)(=O)c1cccc(c1)C(=O)N[C@H](CC(C)C)[C@@H](c1ccc(C(C)(C)C)cc1)O2 (single isomer, unassigned) [Compound 39]
4 | ++ (++ is 30-60%) | < 1 µM | +++ (+++ is >60%) | < 1 µM |  |  |  |  | Cc1cccc(C)c1-c1cc2nc(n1)NS(=O)(=O)c1cccc(c1)C(=O)N[C@@H]1CN(CCC(C)(C)C)C[C@H]1O2 [Compound 64, (3R,7R)-5-(3,3-Dimethylbutyl)-19-(2,6-dimethylphenyl)-2-oxa-15λ^6-thia-5,8,16,18,21-pentaazatetracyclo[15.3.1.110,14.03,7]docosa-1(20),10(22),11,13,17(21),18-hexaene-9,15,15-trione]
5 | +++ (+++ is >60%) | < 1 µM | +++ (+++ is >60%) | < 1 µM |  |  |  |  | Cc1cccc(C)c1-c1cc2nc(n1)NS(=O)(=O)c1cccc(c1)C(=O)N[C@@H](C(CC(C)C)c1ccccc1)CO2 (stereo in doubt) [Compound 181]
6 | +++ (+++ is >60%) |  | +++ (+++ is >60%) | < 1 µM |  |  |  |  | Cc1cccc(C)c1-c1cc2nc(n1)NS(=O)(=O)c1cccc(c1)C(=O)N[C@H](CC(C)C)[C@@H](c1ccc(C(C)(C)C)cc1)O2 (single isomer, unassigned) [Compound 40]
7 | +++ (+++ is >60%) | < 1 µM | +++ (+++ is >60%) | < 1 µM |  |  |  |  | Cc1cccc(C)c1-c1cc2nc(n1)NS(=O)(=O)c1cccc(c1)C(=O)N[C@@H](CC13CC4CC(CC(C4)C1)C3)CO2 (single isomer, unassigned) [Compound 110, 11-(1-adamantylmethyl)-6-(2,6-dimethylphenyl)-2,2-dioxo-9-oxa-2λ^6-thia-3,5,12,19-tetrazatricyclo[12.3.1.14,8]nonadeca-1(18),4(19),5,7,14,16-hexaen-13-one]
8 | +++ (+++ is >60%) | < 1 µM | +++ (+++ is >60%) | < 1 µM |  |  |  |  | Cc1cccc(C)c1-c1cc2nc(n1)NS(=O)(=O)c1cccc(c1)C(=O)N[C@@H]1CN(Cc3ccc(C(C)(C)C)cc3)C[C@H]1O2 [Compound 63, (3R,7R)-5-[(4-tert-Butylphenyl)methyl]-19-(2,6-dimethylphenyl)-2-oxa-15λ^6-thia-5,8,16,18,21-pentaazatetracyclo[15.3.1.110,14.03,7]docosa-1(20),10(22),11,13,17(21),18-hexaene-9,15,15-trione]
9 | ++ (++ is 30-60%) | < 1 µM | +++ (+++ is >60%) | < 1 µM |  |  |  |  | Cc1cccc(C)c1-c1cc2nc(n1)NS(=O)(=O)c1cccc(c1)C(=O)N[C@@H]1CN(C3CC4(CCCCC4)C3)C[C@H]1O2 [Compound 377]
10 | ++ (++ is 30-60%) | < 1 µM | +++ (+++ is >60%) | < 1 µM |  |  |  |  | Cc1cccc(C)c1-c1cc2nc(n1)NS(=O)(=O)c1cccc(c1)C(=O)NC[C@@H](c1ccc(CC(C)(C)C)cc1)O2 [Compound 263]
11 | +++ (+++ is >60%) | < 1 µM | +++ (+++ is >60%) | < 1 µM |  |  |  |  | Cc1cccc(C)c1-c1cc2nc(n1)NS(=O)(=O)c1cccc(c1)C(=O)N[C@@H]1CN(CCC3(C(F)(F)F)CC3)C[C@H]1O2 [Compound 378]
12 | ++ (++ is 30-60%) |  | +++ (+++ is >60%) | 3 to 30 µM |  |  |  |  | CCC(C)(C)C(=O)N1C[C@H]2NC(=O)c3cccc(c3)S(=O)(=O)Nc3nc(cc(-c4c(C)cccc4C)n3)O[C@@H]2C1 [Compound 369]
13 | ++ (++ is 30-60%) | 3 to 30 µM | ++ (++ is 30-60%) | 3 to 30 µM |  |  |  |  | Cc1cccc(C)c1-c1cc2nc(n1)NS(=O)(=O)c1cc(n[nH]1)C(=O)N[C@H](CC(C)C)CO2 [Compound 78, (10R)-15-(2,6-dimethylphenyl)-10-isobutyl-3,3-dioxo-12-oxa-3λ^6-thia-2,5,6,9,16,17-hexazatricyclo[11.3.1.14,7]octadeca-1(17),4(18),6,13,15-pentaen-8-one]
14 |  |  |  |  | + (+ is <30%) | + (+ is <30%) | 3 to 30 µM |  | Cc1cccc(C)c1-c1cc2nc(n1)NS(=O)(=O)c1cccc(c1)C(=O)NC[C@H](c1ccc(C(C)(C)C)cc1)O2 (single isomer, unassigned) [Compound 4]
15 | ++ (++ is 30-60%) | 3 to 30 µM | +++ (+++ is >60%) | 3 to 30 µM |  |  |  |  | Cc1cccc(C)c1-c1cc2nc(n1)NS(=O)(=O)c1cccc(c1)C(=O)N[C@@H]1CN(C(C)C)C[C@H]1O2 [Compound 375]
16 | ++ (++ is 30-60%) | < 1 µM | +++ (+++ is >60%) | < 1 µM |  |  |  |  | Cc1cccc(C)c1-c1cc2nc(n1)NS(=O)(=O)c1cccc(c1)C(=O)N[C@@H]1CN(c3ncc(C(F)(F)F)cn3)C[C@H]1O2 [Compound 372]
17 | +++ (+++ is >60%) | < 1 µM | +++ (+++ is >60%) | < 1 µM |  |  |  |  | Cc1cccc(C)c1-c1cc2nc(n1)NS(=O)(=O)c1cccc(c1)C(=O)NC(C)(CC(C)C)CO2 (centres unmarked) [Compound 177]
18 | +++ (+++ is >60%) | < 1 µM | +++ (+++ is >60%) | < 1 µM |  |  |  |  | Cc1cccc(C)c1-c1cc2nc(n1)NS(=O)(=O)c1cccc(c1)C(=O)NC[C@H](c1ccc(CCC(C)(C)C)cc1)O2 (stereo in doubt) [Compound 149]
19 | +++ (+++ is >60%) | < 1 µM | +++ (+++ is >60%) | < 1 µM |  |  |  |  | Cc1cccc(C)c1-c1cc2nc(n1)NS(=O)(=O)c1cccc(c1)C(=O)NC[C@@H](c1ccc(CCC3(C(F)(F)F)CC3)cc1)O2 [Compound 146]
20 | +++ (+++ is >60%) | < 1 µM | +++ (+++ is >60%) | < 1 µM |  |  |  |  | Cc1cccc(CC2CC2)c1-c1cc2nc(n1)NS(=O)(=O)c1cccc(c1)C(=O)N[C@H](CC(C)C)CO2 [Compound 107, (11R)-6-[2-(cyclopropylmethyl)-6-methyl-phenyl]-11-isobutyl-2,2-dioxo-9-oxa-2λ^6-thia-3,5,12,19-tetrazatricyclo[12.3.1.14,8]nonadeca-1(18),4(19),5,7,14,16-hexaen-13-one]
21 | ++ (++ is 30-60%) | < 1 µM | +++ (+++ is >60%) | < 1 µM |  |  |  |  | Cc1cccc(C)c1-c1cc2nc(n1)NS(=O)(=O)c1cccc(c1)C(=O)N[C@@H]1CN(C3CCC4(CC3)CC4)C[C@H]1O2 [Compound 376]
22 | ++ (++ is 30-60%) |  | ++ (++ is 30-60%) | 3 to 30 µM |  |  |  |  | Cc1cccc(C)c1-c1cc2nc(n1)NS(=O)(=O)c1cccc(c1)C(=O)N[C@@H]1CN(C(=O)CC(C)(C)C)C[C@H]1O2 [Compound 381]
23 |  |  |  |  | ++ (++ is 306%) |  | < 1 µM | < 1 µM | Cc1ccc(C2CNC(=O)c3cccc(c3)S(=O)(=O)Nc3nc(cc(-c4c(C)cccc4C)n3)O2)cc1 (centres unmarked) [Compound 405]

Row | Structure (SMILES) | Ent. B Max Activity (CFTR [1]; Table 9) | EC50 (CFTR [1]; Table 9) | Ent. A Max Activity (CFTR [2]; Table 9) | EC50 (CFTR [2]; Table 9) | Ent. B Max Activity (CFTR [1]; Table 8) | Ent. A Max Activity (CFTR [2]; Table 8) | EC50 (CFTR [2]; Table 8) | EC50 (CFTR [1]; Table 8)
24 | Cc1cccc(C)c1-c1cc2nc(n1)NS(=O)(=O)c1cccc(c1)C(=O)NCC(c1ccc([Si](C)(C)C)cc1)O2 (single isomer, unassigned) [Compound 17, 6-(2,6-dimethylphenyl)-2,2-dioxo-10-(4-trimethylsilylphenyl)-9-oxa-2λ^6-thia-3,5,12,19-tetrazatricyclo[12.3.1.14,8]nonadeca-1(18),4(19),5,7,14,16-hexaen-13-one] |  | < 1 µM |  | < 1 µM |  |  |  | 
